From patent US20240268372A1, “Methods and Compositions for Extending Organ and Tissue Preservation” (The General Hospital Corporation, priority 2021, published 2024)

Tested on: whole rat livers
Assay: Optimized partial freezing of whole rat livers: SNMP recovery after freezing
Conditions: −10° C., 1 day; at 3 h
Method: Within this standardized protocol, we first compared GLY, EG, and PG as main permeating CPA using a freezing temperature of −10° C. and storage duration of 1 day (FIG. 37). Using PG as the CPA, we subsequently tested the effect of freezing temperature (−10° C. vs −15° C.) and storage duration (1 day vs 5 days) on liver viability after partial freezing using the same protocol (FIG. 38).
Machine perfusion system: The perfusion system provides a continuous perfusion through the portal vein that is pressure, flow, and temperature controlled. The perfusates can be either recirculated or flushed with a single pass though the liver and perfusates can be changed without interrupting perfusion. The setup and operation of the perfusion system is described in detail elsewhere (see, e.g., ref. 15). There were two oxygenators used in this study, including the Radnoti (Cat #130144) and Affinity Pixie Oxygenator (Cat #BBP241). Due to the flexibility and low cost of the Radnoti oxygenator, it was first used for initial optimization and characterization studies, including determining the effect of permeating CPAs (GLY vs EG vs PG; FIG. 37), temperature (−10 vs −15° C., FIG. 38) storage duration (1 vs 5 days, FIG. 38), and warm ischemic injury. Once the major aspects of the protocol were optimized and characterized, we used the clinical grade Affinity Pixie Oxygenator. […]

## OCC(O)CO [GLY, glycerol]
  weight gain during SNMP recovery: 35.00±20.49%
